Assay [1] deals with T1, PPARγ–LBD (Homo sapiens, UniProt P37231).
T1 sequence (P37231 238-503 limits assumed): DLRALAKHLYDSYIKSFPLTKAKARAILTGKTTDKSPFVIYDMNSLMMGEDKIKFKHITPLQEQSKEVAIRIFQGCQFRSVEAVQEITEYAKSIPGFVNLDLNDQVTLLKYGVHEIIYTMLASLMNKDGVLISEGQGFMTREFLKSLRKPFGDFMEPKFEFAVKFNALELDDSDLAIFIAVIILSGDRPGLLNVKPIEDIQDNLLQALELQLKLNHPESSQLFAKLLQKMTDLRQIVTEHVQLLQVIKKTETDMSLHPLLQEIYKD
In words: 2D fluorescence anisotropy. The following applies: ligand excess vs no ligand. In kind it is binding. In general terms: In fluorescence polarisation assays a small probe gives low polarisation when free and higher when bound to something large.

The target of assay [2] is PPARγ·MED1 (Homo sapiens, UniProt P37231). The experiment in a line: 2D-ITC of ligand to PPARγ in the presence of MED1 in cell and syringe. The following applies: for cooperativity value α: ITC, PPARγ·ligand·MED1 complex; for −TΔΔS: cooperative effect of MED1 on ligand binding. It counts as binding.

The values below come from PMC8890100 (Chemical Science, 2022).

As to `CC[C@@H](Oc1cccc(CN(CCCOc2ccc(OC)cc2)c2nc3ccccc3o2)c1)C(=O)O` [Pemafibrate], the “EC50 shift (fold enhancement of PPARγ/MED1 EC50)” value in assay [1] is given as “smaller EC50 shift”.
In the case of `CN(CCOc1ccc(CC2SC(=O)NC2=O)cc1)c1ccccn1` (centres unmarked) [Rosiglitazone], in assay [2], the “cooperativity value α” value amounted to 28 and the “−TΔΔS” value was -2.3 kcal/mol.
With `CCCc1nc2c(C)cc(-c3nc4ccccc4n3C)cc2n1Cc1ccc(-c2ccccc2C(=O)O)cc1` [Telmisartan], the “EC50 shift (fold enhancement of PPARγ/MED1 EC50)” value in assay [1] is listed as “smaller EC50 shift”.
As for `CCO[C@@H](Cc1ccc(OCCc2ccc(OS(C)(=O)=O)cc2)cc1)C(=O)O` [Tesaglitazar], in assay [1], the “EC50 shift (fold enhancement of PPARγ/MED1 EC50)” value came out at 24 fold. In addition, in assay [2], the “cooperativity value α” value came to 18 and the “−TΔΔS” value is -3.5 kcal/mol. In addition, in assay [2] (ligand binding to PPARγ in the presence of MED1), the ΔH is listed as 21.0 kcal/mol.
